Molecular target: T1, Human recombinant cathepsin S (Homo sapiens, UniProt P25774)
T1 construct: made in house; host or cells: Sf9 insect cells (baculovirus, pFastBac1)
Experiment: Inhibition of Cathepsin S
Type: biochemical
Conditions: 10 nM enzyme, pH 6.5, 37° C., fluorescence 360/460 nm

T1 sequence (P25774 115-331): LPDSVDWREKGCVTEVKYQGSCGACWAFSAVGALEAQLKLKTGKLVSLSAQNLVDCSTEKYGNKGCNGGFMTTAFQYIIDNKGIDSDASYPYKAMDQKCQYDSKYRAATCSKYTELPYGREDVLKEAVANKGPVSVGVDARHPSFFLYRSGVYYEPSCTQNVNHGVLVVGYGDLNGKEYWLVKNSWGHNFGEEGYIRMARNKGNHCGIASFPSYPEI

- IC50: > 100 nM
SMILES: CCC(C)(C)CC[C@@H](NC(=O)N1CCOCC1)C(=O)NC1(C#N)CCN(C)CC1 [Morpholine-4-carboxylic acid [(R)-1-(4-cyano-1-methyl-piperidine-4-ylcarbamoyl)-4,4-dimethyl-hexyl]-amide]

From patent US7465745B2, “Cathepsin S inhibitors” (Boehringer Ingelheim Pharmaceuticals, Inc., priority 2003, dated 2008)
